Laboratory results reported in PubChem BioAssay (NCI).
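All cell lines were grown in 96-well plates and treated with compound for 48 hours. Here, GI50 denotes the concentration required for 50% inhibition of growth. Definition used: TGI = concentration required for complete inhibition of growth.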

Legend:
Assay in all cases: NCI tumour cell line growth inhibition, 48 h
HCT-116 colon = tested on: HCT-116 colon
A498 renal = tested on: A498 renal
NCI-H522 lung = tested on: NCI-H522 lung
BT-549 breast = tested on: BT-549 breast
MDA-MB-231 breast = tested on: MDA-MB-231 breast
786-0 renal = tested on: 786-0 renal
RXF 393 renal = tested on: RXF 393 renal
CAKI-1 renal = tested on: CAKI-1 renal
K-562 leukemia = tested on: K-562 leukemia
SK-OV-3 ovarian = tested on: SK-OV-3 ovarian
U251 CNS = tested on: U251 CNS
MALME-3M melanoma = tested on: MALME-3M melanoma
SF-539 CNS = tested on: SF-539 CNS
COLO 205 colon = tested on: COLO 205 colon
SF-295 CNS = tested on: SF-295 CNS
CCRF-CEM leukemia = tested on: CCRF-CEM leukemia
RPMI-8226 leukemia = tested on: RPMI-8226 leukemia
SK-MEL-5 melanoma = tested on: SK-MEL-5 melanoma
M14 melanoma = tested on: M14 melanoma
HS 578T breast = tested on: HS 578T breast
ACHN renal = tested on: ACHN renal
OVCAR-3 ovarian = tested on: OVCAR-3 ovarian
MCF7 breast = tested on: MCF7 breast
HT29 colon = tested on: HT29 colon
HCC-2998 colon = tested on: HCC-2998 colon
SK-MEL-28 melanoma = tested on: SK-MEL-28 melanoma
OVCAR-8 ovarian = tested on: OVCAR-8 ovarian
MOLT-4 leukemia = tested on: MOLT-4 leukemia
TK-10 renal = tested on: TK-10 renal
HCT-15 colon = tested on: HCT-15 colon
NCI-H226 lung = tested on: NCI-H226 lung
A549 NSCLC = tested on: A549 NSCLC
EKVX NSCLC = tested on: EKVX NSCLC
HL-60(TB) leukemia = tested on: HL-60(TB) leukemia
UO-31 renal = tested on: UO-31 renal
SNB-19 CNS = tested on: SNB-19 CNS
OVCAR-5 ovarian = tested on: OVCAR-5 ovarian
NCI-H23 lung = tested on: NCI-H23 lung
OVCAR-4 ovarian = tested on: OVCAR-4 ovarian
LOX IMVI melanoma = tested on: LOX IMVI melanoma
UACC-257 melanoma = tested on: UACC-257 melanoma
UACC-62 melanoma = tested on: UACC-62 melanoma
HOP-92 NSCLC = tested on: HOP-92 NSCLC
SW-620 colon = tested on: SW-620 colon
SN12C renal = tested on: SN12C renal
MDA-MB-435 = tested on: MDA-MB-435
SNB-75 CNS = tested on: SNB-75 CNS
SR leukemia = tested on: SR leukemia
DU-145 prostate = tested on: DU-145 prostate
NCI-H460 lung = tested on: NCI-H460 lung
HOP-62 NSCLC = tested on: HOP-62 NSCLC
T-47D breast = tested on: T-47D breast
KM12 colon = tested on: KM12 colon
SF-268 CNS = tested on: SF-268 CNS
IGROV1 ovarian = tested on: IGROV1 ovarian
SK-MEL-2 melanoma = tested on: SK-MEL-2 melanoma

For `O=C(Nc1ccc(Oc2cccc(F)c2)c(Cl)c1)c1cnccn1`, the GI50 (HCT-116 colon) was 0.596 µM, the TGI (HCT-116 colon) was > 50 µM and the GI50 (A498 renal) was 3.77 µM. For the same molecule, the TGI (A498 renal) was 43.3 µM, the GI50 (NCI-H522 lung) was 1.19 µM and the TGI (NCI-H522 lung) was > 50 µM. For the same molecule, the GI50 (BT-549 breast) was 2.18 µM, the TGI (BT-549 breast) was > 50 µM and the GI50 (MDA-MB-231 breast) was 3.28 µM. The TGI (MDA-MB-231 breast) was > 50 µM, the GI50 (786-0 renal) was 3.03 µM and the TGI (786-0 renal) was > 50 µM. It also gave a GI50 (RXF 393 renal) of 1.23 µM, a TGI (RXF 393 renal) of 3.72 µM and a GI50 (CAKI-1 renal) of 2.13 µM. For the same molecule, the TGI (CAKI-1 renal) was > 50 µM, the GI50 (K-562 leukemia) was 0.242 µM and the TGI (K-562 leukemia) was > 50 µM. The GI50 (SK-OV-3 ovarian) was 10.8 µM, the TGI (SK-OV-3 ovarian) was > 50 µM and the GI50 (U251 CNS) was 1.51 µM. For the same molecule, the TGI (U251 CNS) was > 50 µM, the GI50 (MALME-3M melanoma) was 3.03 µM and the TGI (MALME-3M melanoma) was > 50 µM. For the same molecule, the GI50 (SF-539 CNS) was 1.35 µM, the TGI (SF-539 CNS) was > 50 µM and the GI50 (COLO 205 colon) was 0.789 µM. The TGI (COLO 205 colon) was > 50 µM, the GI50 (SF-295 CNS) was 1.56 µM and the TGI (SF-295 CNS) was > 50 µM. The GI50 (CCRF-CEM leukemia) was 1.3 µM, the TGI (CCRF-CEM leukemia) was > 50 µM and the GI50 (RPMI-8226 leukemia) was 1.79 µM. The TGI (RPMI-8226 leukemia) was > 50 µM, the GI50 (SK-MEL-5 melanoma) was 1.79 µM and the TGI (SK-MEL-5 melanoma) was > 50 µM. The GI50 (M14 melanoma) was 0.78 µM, the TGI (M14 melanoma) was > 50 µM and the GI50 (HS 578T breast) was 1.19 µM. The TGI (HS 578T breast) was > 50 µM, the GI50 (ACHN renal) was 3.3 µM and the TGI (ACHN renal) was > 50 µM. It also gave a GI50 (OVCAR-3 ovarian) of 1 µM, a TGI (OVCAR-3 ovarian) of 5.15 µM and a GI50 (MCF7 breast) of 0.413 µM. The TGI (MCF7 breast) was > 50 µM, the GI50 (HT29 colon) was 0.234 µM and the TGI (HT29 colon) was > 50 µM. For the same molecule, the GI50 (HCC-2998 colon) was 6.04 µM, the TGI (HCC-2998 colon) was > 50 µM and the GI50 (SK-MEL-28 melanoma) was 28.6 µM. The TGI (SK-MEL-28 melanoma) was > 50 µM, the GI50 (OVCAR-8 ovarian) was 2.51 µM and the TGI (OVCAR-8 ovarian) was > 50 µM. The GI50 (MOLT-4 leukemia) was 1.85 µM, the TGI (MOLT-4 leukemia) was > 50 µM and the GI50 (TK-10 renal) was 3.75 µM. The TGI (TK-10 renal) was > 50 µM, the GI50 (HCT-15 colon) was 0.28 µM and the TGI (HCT-15 colon) was > 50 µM. The GI50 (NCI-H226 lung) was 2.6 µM, the TGI (NCI-H226 lung) was > 50 µM and the GI50 (A549 NSCLC) was 0.938 µM. For the same molecule, the TGI (A549 NSCLC) was > 50 µM, the GI50 (EKVX NSCLC) was 2.67 µM and the TGI (EKVX NSCLC) was > 50 µM. The GI50 (HL-60(TB) leukemia) was 1.29 µM, the TGI (HL-60(TB) leukemia) was 3.72 µM and the GI50 (UO-31 renal) was 2.93 µM. For the same molecule, the TGI (UO-31 renal) was > 50 µM, the GI50 (SNB-19 CNS) was 2.74 µM and the TGI (SNB-19 CNS) was > 50 µM. For the same molecule, the GI50 (OVCAR-5 ovarian) was 4.27 µM, the TGI (OVCAR-5 ovarian) was > 50 µM and the GI50 (NCI-H23 lung) was 3 µM. For the same molecule, the TGI (NCI-H23 lung) was > 50 µM, the GI50 (OVCAR-4 ovarian) was 36.6 µM and the TGI (OVCAR-4 ovarian) was > 50 µM. For the same molecule, the GI50 (LOX IMVI melanoma) was 1.69 µM, the TGI (LOX IMVI melanoma) was > 50 µM and the GI50 (UACC-257 melanoma) was 4.53 µM. For the same molecule, the TGI (UACC-257 melanoma) was > 50 µM, the GI50 (UACC-62 melanoma) was 2.72 µM and the TGI (UACC-62 melanoma) was > 50 µM. The GI50 (HOP-92 NSCLC) was 1.44 µM, the TGI (HOP-92 NSCLC) was > 50 µM and the GI50 (SW-620 colon) was 0.366 µM. The TGI (SW-620 colon) was > 50 µM, the GI50 (SN12C renal) was 3.6 µM and the TGI (SN12C renal) was > 50 µM. For the same molecule, the GI50 (MDA-MB-435) was 0.149 µM, the TGI (MDA-MB-435) was 0.683 µM and the GI50 (SNB-75 CNS) was 1.06 µM. For the same molecule, the TGI (SNB-75 CNS) was 4.22 µM, the GI50 (SR leukemia) was 0.242 µM and the TGI (SR leukemia) was > 50 µM. For the same molecule, the GI50 (DU-145 prostate) was 2 µM, the TGI (DU-145 prostate) was > 50 µM and the GI50 (NCI-H460 lung) was 1.79 µM. The TGI (NCI-H460 lung) was > 50 µM, the GI50 (HOP-62 NSCLC) was 0.973 µM and the TGI (HOP-62 NSCLC) was > 50 µM. For the same molecule, the GI50 (T-47D breast) was 1.33 µM, the TGI (T-47D breast) was > 50 µM and the GI50 (KM12 colon) was 0.357 µM. The TGI (KM12 colon) was > 50 µM, the GI50 (SF-268 CNS) was 7.81 µM and the TGI (SF-268 CNS) was > 50 µM. The GI50 (IGROV1 ovarian) was 1.83 µM, the TGI (IGROV1 ovarian) was > 50 µM and the GI50 (SK-MEL-2 melanoma) was 2.15 µM. The TGI (SK-MEL-2 melanoma) was > 50 µM.
